Measurements published in patent publication US20250134851A1 (priority 2021, published 2025).

Experiments:
[1] = tested on: skin wrinkles under the eyes; design: species or system human; conditions: in vivo
PC12 cells = format: cell-based
[2] = tested on: hyperhidrosis (hand sweating); design: species or system human; conditions: in vivo
[3] = tested on: sweating area of hind paw of ICR mice; conditions: mouse, in vivo, 0.8 mg/kg
[4] = format: physicochemical; conditions: pH 7

Row | SMILES | Reduction of skin wrinkle dermal density (%) [1] [%] | inhibition of acetylcholine release (PC12 cells) | Sweat weight [2] [%] | sweating area relative to control [3] | Residual amount [4]
1 | CC(=O)Oc1c(-c2cc(O)c(O)c(O)c2)oc2cc(O)cc(O)c2c1=O [3-Acetyl-Myricetin, 3-acetyl-myricetin] | 78 | inhibit acetylcholine release | 28 | improved effect to a degree that the previously reported myricetin derivatives cannot provide | ≈100%
2 | COc1cc(O)c2c(=O)c(OC)c(-c3cc(OC)c(OC)c(OC)c3)oc2c1 [Combretol, combretol] | 36 |  | 56 |  | <<10%
3 | COc1cc(-c2oc3cc(O)cc(O)c3c(=O)c2O)cc(O)c1O [Laricitrin, laricitrin] | 38 |  | 52 |  | <<10%
4 | O=c1c(O)c(-c2cc(O)c(O)c(O)c2)oc2cc(O)cc(O)c12 [Myricetin, myricetin] | 48 |  | 55 |  | <<10%
5 | COc1cc(-c2oc3cc(O)cc(O)c3c(=O)c2O)cc(OC)c1O [Syringetin, syringetin] | 37 |  | 53 |  | <<10%
